Measurements from patent EP0404945A1 (priority 1989, dated 1990).
Where two headings read alike, the source gives them in different places.

Experiments:
[1] = test system: virus of influenza, type A, (H1N1); assay: microbe, parasite or virus in culture
ascarid ovi = assay: animal or person; type: in vivo, pig.ascarid
houseflies [2] = assay: whole plant or invertebrate; details: Musca domestica; for mortality at 1 %: read-out: Death of flies, % Tests laboratory
Virus of hepatitis B = assay: microbe, parasite or virus in culture; details: 0.5 h, read-out: Death of viruses (%) at 30 minutes exposure, Virus of hepatitis B
Colibacillus = assay: microbe, parasite or virus in culture; type: cell-based; details: read-out: Efficiency of the preparation, % Colibacillus
Staphylococcus aureus = assay: microbe, parasite or virus in culture; type: cell-based; details: read-out: Efficiency of the preparation, % Staphylococcus aureus
[3] = test system: Infectant of poliomyelitis
Alternaria radicina = type: cell-based
Aspergillus niger = type: cell-based
Fusarium oxysporum = type: cell-based
Helminthosporum saturem = type: cell-based
Venturia inaequalis = type: cell-based
Penicillium sporum = type: cell-based
Candida albicans = assay: microbe, parasite or virus in culture; type: cell-based
Candida tropicalis = assay: microbe, parasite or virus in culture; type: cell-based
houseflies [4] = details: house fly, in vivo
[5] = H1N1, read-out: Virucidal activity of the preparation in respect of the virus of influenza, type A, %
[6] = read-out: Death of ascarid ovi, % Tests laboratory
[7] = 48 h, read-out: Death of flies, % after 48 hours
[8] = 72 h, read-out: Death of flies, % after 72 hours
[9] = H1N1, 0.5 h, read-out: Death of viruses (%) at 30 minutes exposure, Virus of influenza A
[10] = 24 h, read-out: Death of ascarid ovi, % after 24 hrs
[11] = 48 h, read-out: Death of ascarid ovi, % after 48 hours
[12] = 72 h, read-out: Death of ascarid ovi, % after 72 hours
[13] = 24 h, read-out: Death of flies, % after 24 hours
[14] = 24 h, read-out: Death of ascarid ovi, % after 24 hours
[15] = 2 h, read-out: Death of test fungi, % to the control, Candida albicans 2 hrs
[16] = 20 h, read-out: Death of test fungi, % to the control, Candida albicans 20 hrs
[17] = 2 h, read-out: Death of test fungi, % to the control, Candida tropicalis 2 hrs
[18] = 20 h, read-out: Death of test fungi, % to the control, Candida tropicalis 20 hrs

Structure (SMILES): CCOP(=O)(O)NC(CO)C(O)c1ccc([N+](=O)[O-])cc1 (centres unmarked) [Example 29, 1-para-nitrophenyl-1,3-propanediolamidophos-phoric acid ethyl ether]
- killing at 1 % [1, 5]: 83.3%
- killing at 2 % [1, 5]: 86.7%
- killing at 3 % (ascarid ovi; [6]): 100%
- mortality at 2 % (houseflies [2]; [7]): 56%
- mortality at 2 % (houseflies [2]; [8]): 92.3%

Structure (SMILES): COP(=O)(NC(CCl)C(Cl)c1ccc([N+](=O)[O-])cc1)OC (centres unmarked) [Example 12, 1-para-nitrophenyl--1,3-dichloropropanamidophosphoric acid dimethyl ether]
- killing at 1 % [1, 9]: 85%
- killing at 3 % (ascarid ovi; [10]): 100%
- killing at 3 % (ascarid ovi; [11]): 100%
- killing at 3 % (ascarid ovi; [12]): 100%
- mortality at 1 % (houseflies [2]): 71.4%

Structure (SMILES): O=S(=O)(NCl)c1ccccc1 [Known preparation]
- killing at 1 % (Virus of hepatitis B): 50%
- killing at 1 % [1, 9]: 25%
- mortality at 3 % (houseflies [2]; [13]): 86%
- mortality at 2 % (houseflies [2]; [7]): 81%
- mortality at 2 % (houseflies [2]; [8]): 84%
- mortality at 3 % (houseflies [2]; [8]): 92%

Structure (SMILES): O=[N+]([O-])c1ccc(C(O)C(CCl)NP(=O)(O)Oc2ccccc2)cc1 (centres unmarked) [Example 58]
- killing at 1 % [1, 5]: 83.4%
- killing at 2 % [1, 5]: 86%
- killing at 2 % (ascarid ovi; [14]): 95.4%
- killing at 2 % (ascarid ovi; [11]): 100%
- mortality at 2 % (houseflies [2]; [7]): 72%
- mortality at 2 % (houseflies [2]; [8]): 99%

Structure (SMILES): O=[N+]([O-])c1ccc(C(Cl)C(CCl)NP(=O)(O)Nc2ccccc2)cc1 (centres unmarked) [Example 10, 1-para-nitrophenyl-1,3-dichloropropan--2-amidophosphoric acid monoanilide]
- killing at 1 % [1, 9]: 87%
- killing at 3 % (ascarid ovi; [6]): 100%
- mortality at 3 % (houseflies [2]; [13]): 77%
- mortality at 3 % (houseflies [2]; [8]): 99%

Structure (SMILES): O=[N+]([O-])c1ccc(C(O)C(CCl)NP(=O)(O)O)cc1 (centres unmarked) [Example 2, 1-para-nitrophenyl-1--chloro-3-propanolamidophosphoric acid]
- killing at 0.5 % (Colibacillus): 100%
- killing at 0.5 % (Staphylococcus aureus): 100%
- Death of viruses (%) at 60 minutes exposure, Infectant of poliomyelitis [3]: 60%
- killing at 3 % (ascarid ovi; [6]): 100%
- Mycelium growth inhibition, % to the control, Alternaria radicina (Alternaria radicina): 60%
- Mycelium growth inhibition, % to the control, Aspergillus niger (Aspergillus niger): 100%
- Mycelium growth inhibition, % to the control, Fusarium oxisporum (Fusarium oxysporum): 69%
- Mycelium growth inhibition, % to the control, Helminthosporum saturem (Helminthosporum saturem): 88%
- Mycelium growth inhibition, % to the control, Venturia inaequalis (Venturia inaequalis): 64%
- Mycelium growth inhibition, % to the control, Penicillium sporum (Penicillium sporum): 68%
- killing at 0.05 % (Candida albicans; [15]): 99%
- killing at 0.05 % (Candida albicans; [16]): 100%
- killing at 0.05 % (Candida tropicalis; [17]): 90%
- killing at 0.05 % (Candida tropicalis; [18]): 100%

Structure (SMILES): O=[N+]([O-])c1ccc(C(Cl)C(CCl)NP(=O)(Oc2ccccc2)Oc2ccccc2)cc1 (centres unmarked) [Example 6, 1-para-nitrophenyl-1,3-dichlorisopropylamidophosphoric acid diphenyl ether]
- killing at 1 % [1, 9]: 100%
- killing at 3 % (ascarid ovi; [6]): 100%
- mortality at 3 % (houseflies [2]; [13]): 64.7%
- mortality at 3 % (houseflies [2]; [8]): 98.6%

Structure (SMILES): O=[N+]([O-])c1ccc(C(O)C(CCl)NP(=O)(Nc2ccccc2)Nc2ccccc2)cc1 (centres unmarked) [Example 7, 1-para-nitrophenyl-1-hydroxy-3-chloroisopro-pylamidophosphoric acid dianilide]
- killing at 1 % [1, 9]: 100%
- killing at 3 % (ascarid ovi; [6]): 100%
- mortality at 3 % (houseflies [2]; [13]): 55.1%
- mortality at 3 % (houseflies [2]; [8]): 94%

Structure (SMILES): O=[N+]([O-])c1ccc(C(Cl)C(CCl)NP(=O)(O)Oc2ccccc2)cc1 (centres unmarked) [Example 59, 1-para-nitrophenyl-1,3-dichloropropane--2-amidophosphoric acid monophenyl ether]
- killing at 1 % [1, 5]: 92.3%
- killing at 2 % [1, 5]: 96.1%
- killing at 2 % (ascarid ovi; [14]): 91.8%
- killing at 2 % (ascarid ovi; [11]): 100%
- mortality at 2 % (houseflies [2]; [7]): 60%
- mortality at 2 % (houseflies [2]; [8]): 91.2%

Structure (SMILES): CCOP(=O)(NC(CCl)C(Cl)c1ccc([N+](=O)[O-])cc1)OCC (centres unmarked) [Example 14, 1-para-nitrophenyl-1,3--dichloropropanamidophosphoric acid diethyl ether]
- killing at 1 % [1, 9]: 90%
- killing at 3 % (ascarid ovi; [10]): 100%
- killing at 3 % (ascarid ovi; [11]): 100%
- killing at 3 % (ascarid ovi; [12]): 100%

Structure (SMILES): CNC(=S)S [Known ovocidal preparation (carbathion), sodium N-methyldithiocarbamate dihydrate, reference compound]
- killing at 2 % (ascarid ovi; [14]): 60%
- killing at 3 % (ascarid ovi; [10]): 100%
- killing at 2 % (ascarid ovi; [11]): 80%
- killing at 3 % (ascarid ovi; [11]): 100%
- killing at 3 % (ascarid ovi; [6]): 80%

Structure (SMILES): COP(=O)(NC(CCl)C(O)c1ccc([N+](=O)[O-])cc1)OC (centres unmarked) [Example 11, 1-para-nitrophenyl-1-chloro-3-propanolamidophosphoric acid dimethyl ether]
- killing at 1 % [1, 9]: 74%
- killing at 3 % (ascarid ovi; [10]): 100%
- killing at 3 % (ascarid ovi; [11]): 100%
- killing at 3 % (ascarid ovi; [12]): 100%
- Death of flies, % Tests laboratory (houseflies [4]): 72.7%
- mortality at 1 % (houseflies [2]): 67.7%

Structure (SMILES): CCOP(=O)(O)NC(CCl)C(O)c1ccc([N+](=O)[O-])cc1 (centres unmarked) [Example 30]
- killing at 1 % [1, 5]: 71.2%
- killing at 2 % [1, 5]: 79%
- killing at 3 % (ascarid ovi; [6]): 100%
- mortality at 2 % (houseflies [2]; [7]): 42.8%
- mortality at 2 % (houseflies [2]; [8]): 94%

Structure (SMILES): CCOP(=O)(NC(CCl)C(O)c1ccc([N+](=O)[O-])cc1)OCC (centres unmarked) [Example 13, 1-para-nitrophenyl-1-chloro-3-propanolamidophosphoric acid diethyl ether]
- killing at 1 % [1, 9]: 90%
- killing at 3 % (ascarid ovi; [10]): 100%
- killing at 3 % (ascarid ovi; [11]): 100%
- killing at 3 % (ascarid ovi; [12]): 100%
- mortality at 1 % (houseflies [2]): 99.6%

Structure (SMILES): O=[N+]([O-])c1ccc(C(Cl)C(CCl)NP(=O)(Nc2ccccc2)Nc2ccccc2)cc1 (centres unmarked) [Example 8, 1-para- . -nitrophenyl-1,3-dichloroisopropylamidophosphoric acid dianilide]
- killing at 1 % [1, 9]: 100%
- killing at 3 % (ascarid ovi; [6]): 100%
- mortality at 3 % (houseflies [2]; [13]): 66.4%
- mortality at 3 % (houseflies [2]; [8]): 98%

Structure (SMILES): CCOP(=O)(O)NC(CCl)C(Cl)c1ccc([N+](=O)[O-])cc1 (centres unmarked) [Example 31, 1-para-nitrophenyl-1,3-dichloropropanamidophosphor-ic acid ethyl ether]
- killing at 1 % [1, 5]: 36.9%
- killing at 2 % [1, 5]: 46.9%
- killing at 3 % (ascarid ovi; [6]): 100%
- mortality at 2 % (houseflies [2]; [7]): 44.2%
- mortality at 2 % (houseflies [2]; [8]): 91.3%

Structure (SMILES): O=[N+]([O-])c1ccc(C(O)C(CCl)NP(=O)(Oc2ccccc2)Oc2ccccc2)cc1 (centres unmarked) [Example 5, diphenyl ether of 1-para-nitrophenyl-1--hydroxy-3-chloroisopropylamidophosphoric acid]
- killing at 1 % [1, 9]: 100%
- killing at 3 % (ascarid ovi; [6]): 100%
- mortality at 3 % (houseflies [2]; [13]): 35.4%
- mortality at 3 % (houseflies [2]; [8]): 96%

Structure (SMILES): O=S(=O)(NCl)c1ccccc1 [Known bactericidal preparation, Sodium N-Chlorobenzenesulphamide, reference compound]
- killing at 0.5 % (Colibacillus): 100%
- killing at 0.5 % (Staphylococcus aureus): 100%
- killing at 1 % [1, 5]: 22%
- killing at 2 % [1, 5]: 28%

Structure (SMILES): O=[N+]([O-])c1ccc(C(O)C(CO)NP(=O)(O)O)cc1 (centres unmarked) [Example 1, 1-para-netrophenyl-1,3--propanediolamidophosphoric acid]
- killing at 0.5 % (Colibacillus): 100%
- killing at 0.5 % (Staphylococcus aureus): 80%
- Death of viruses (%) at 60 minutes exposure, Infectant of poliomyelitis [3]: 40%
- killing at 3 % (ascarid ovi; [6]): 100%
- Mycelium growth inhibition, % to the control, Alternaria radicina (Alternaria radicina): 75%
- Mycelium growth inhibition, % to the control, Aspergillus niger (Aspergillus niger): 99%
- Mycelium growth inhibition, % to the control, Fusarium oxisporum (Fusarium oxysporum): 68%
- Mycelium growth inhibition, % to the control, Helminthosporum saturem (Helminthosporum saturem): 54%
- Mycelium growth inhibition, % to the control, Venturia inaequalis (Venturia inaequalis): 32%
- Mycelium growth inhibition, % to the control, Penicillium sporum (Penicillium sporum): 58%
- killing at 0.05 % (Candida albicans; [15]): 98%
- killing at 0.05 % (Candida albicans; [16]): 100%
- killing at 0.05 % (Candida tropicalis; [17]): 96%
- killing at 0.05 % (Candida tropicalis; [18]): 100%

Structure (SMILES): O=C(N[C@H](COP(=O)(NC(CCl)C(O)c1ccc([N+](=O)[O-])cc1)OC[C@@H](NC(=O)C(Cl)Cl)[C@H](O)c1ccc([N+](=O)[O-])cc1)[C@H](O)c1ccc([N+](=O)[O-])cc1)C(Cl)Cl (some centres unmarked) [Example 32]
- killing at 3 % (ascarid ovi; [6]): 100%

Structure (SMILES): O=[N+]([O-])c1ccc(C(O)C(CCl)NP(=O)(O)Nc2ccccc2)cc1 (centres unmarked) [Example 9]
- killing at 1 % [1, 9]: 78%
- killing at 3 % (ascarid ovi; [6]): 100%
- mortality at 3 % (houseflies [2]; [13]): 65%
- mortality at 3 % (houseflies [2]; [8]): 96%

Structure (SMILES): O=C1C(Cl)=C(Cl)C(=O)c2ccccc21 [Phygon, 2,3-dichloronaphtho-quinone-1,4, reference compound]
- Mycelium growth inhibition, % to the control, Alternaria radicina (Alternaria radicina): 94%
- Mycelium growth inhibition, % to the control, Aspergillus niger (Aspergillus niger): 100%
- Mycelium growth inhibition, % to the control, Fusarium oxisporum (Fusarium oxysporum): 58%
- Mycelium growth inhibition, % to the control, Helminthosporum saturem (Helminthosporum saturem): 92%
- Mycelium growth inhibition, % to the control, Venturia inaequalis (Venturia inaequalis): 98%
- Mycelium growth inhibition, % to the control, Penicillium sporum (Penicillium sporum): 100%
- killing at 0.05 % (Candida albicans; [15]): 68%
- killing at 0.05 % (Candida albicans; [16]): 100%
- killing at 0.05 % (Candida tropicalis; [17]): 76%
- killing at 0.05 % (Candida tropicalis; [18]): 100%
